Tested on: Aβ1-42 production
Assay: Cellular assay for inhibition of Aβ1-42 production (H4 APP751 SWE clone 8.20)
Type: cell-based
Conditions: 19 h, H4 APP751 SWE clone 8.20 cells, 19 h incubation; class symbols; read-out: Activity Rating (Aβ42 cellular IC50)
How it was run: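 H4 cells stably expressing Swedish-mutant APP751 incubated with compound 19 h at 37 °C, 5% CO2. Secreted Aβ42 detected by HTRF with Aβ42 neoepitope antibody 565 (0.8 ng/well) and N-terminal 26D6 (75 ng/well), overnight at 4 °C. IC50 obtained by curve fitting.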

Row | SMILES | IC50
1 | COc1cc(Nc2nc(NS(C)(=O)=O)c3c(n2)C(c2ccccc2)CC3)ccc1-n1cnc(Cl)c1 (stereo not shown) [Example 211, N-(2-(4-(4-chloro-1H-imidazol-1-yl)-3-methoxyphenylamino)-7-phenyl-6,7-dihydro-5H-cyclopenta[d]pyrimidin-4-yl)-N-methanesulfonamide] | 1.5 to 9.9 nM
2 | CNc1nc(Nc2ccc(OC(F)(F)F)cc2)nc2c1CCC2c1ccccc1 (stereo not shown) [Example 236, N4-methyl-7-phenyl-N2-(4-(trifluoromethoxy)phenyl)-6,7-dihydro-5H-cyclopenta[d]pyrimidine-2,4-diamine] | > 1000 nM
3 | CNc1nc(Nc2ccccc2C#N)nc2c1CCC2c1ccccc1 (stereo not shown) [Example 228, 2-(4-(methylamino)-7-phenyl-6,7-dihydro-5H-cyclopenta[d]pyrimidin-2-ylamino)benzonitrile] | > 1000 nM
4 | CNc1nc(Nc2ccc(-n3cnc(C)n3)c(OC)c2)nc2c1CC[C@H]2c1c(F)cc(F)cc1F (single isomer, unassigned) [Example 270A] | 1.5 to 9.9 nM
5 | CCOCCCNc1nc(Nc2ccc(-n3cnc(Cl)c3)c(OC)c2)nc2c1CCC2c1ccc(F)cc1 (stereo not shown) [Example 42, N2-(4-(4-chloro-1H-imidazol-1-yl)-3-methoxyphenyl)-N4-(3-ethoxypropyl)-7-(4-fluorophenyl)-6,7-dihydro-5H-cyclopenta[d]pyrimidine-2,4-diamine] | 10 to 100 nM
6 | COc1cc(Nc2nc(NC3CC3)c3c(n2)C(c2ccccc2)CC3)ccc1-n1cnc(Cl)c1 (stereo not shown) [Example 8, N2-(4-(4-chloro-1H-imidazol-1-yl)-3-methoxyphenyl)-N4-cyclopropyl-7-phenyl-6,7-dihydro-5H-cyclopenta[d]pyrimidine-2,4-diamine] | 1.5 to 9.9 nM
7 | CCN(C)c1nc(Nc2ccc(-n3cnc(Cl)c3)c(OC)c2)nc2c1CCCC2c1ccc(F)cc1 (stereo not shown) [Example 126, N^2-(4-(4-Chloro-1H-imidazol-1-yl)-3-methoxyphenyl)-N^4-ethyl-8-(4-fluorophenyl)-N^4-methyl-5,6,7,8-tetrahydroquinazoline-2,4-diamine] | 10 to 100 nM
8 | CNc1nc(Nc2ccc(-n3cnc(Cl)c3)c(OC)c2)nc2c1CN(S(=O)(=O)C1CC1)CC2c1ccccc1 (stereo not shown) [Example 130, N2-(4-(4-chloro-1H-imidazol-1-yl)-3-methoxyphenyl)-6-(cyclopropylsulfonyl)-N4-methyl-8-phenyl-5,6,7,8-tetrahydropyrido[4,3-d]pyrimidine-2,4-diamine] | 1.5 to 9.9 nM
9 | CNc1nc(Nc2ccc(-n3ncnc3C)c(OC)c2)nc2c1CC[C@H]2c1ccc(F)cc1 (single isomer, unassigned) [Example 264A] | 1.5 to 9.9 nM
10 | [2H]C([2H])([2H])Nc1nc(Nc2ccc(-n3cnc(Cl)c3)c(OC)c2)nc2c1CCC2c1ccccc1 (stereo not shown) [Example 176, N^2-(4-(4-Chloro-1H-imidazol-1-yl)-3-methoxyphenyl)-N^4-trideuteromethyl-7-phenyl-6,7-dihydro-5H-cyclopenta[d]pyrimidine-2,4-diamine] | 1.5 to 9.9 nM
11 | CCN(C)c1nc(Nc2ccc(-n3cnc(Cl)c3)c(OC)c2)nc2c1CCOC2c1ccc(F)cc1 (stereo not shown) [Example 89, N2-(4-(4-chloro-1H-imidazol-1-yl)-3-methoxyphenyl)-N4-ethyl-8-(4-fluorophenyl)-N4-methyl-6,8-dihydro-5H-pyrano[3,4-d]pyrimidine-2,4-diamine] | 10 to 100 nM

Same assay, conditions: 19 h, H4 APP751 SWE clone 8.20 cells, 19 h incubation; read-out: Activity Rating (Aβ42 cellular IC50), numeric value

Row | SMILES | IC50
12 | CNc1nc(Nc2ccc(-c3cccnc3)c(OC)c2)nc2c1CCC2c1ccccc1 (stereo not shown) [Example 263, N2-(3-methoxy-4-(pyridin-3-yl)phenyl)-N4-methyl-7-phenyl-6,7-dihydro-5H-cyclopenta[d]pyrimidine-2,4-diamine] | 32 nM
13 | CNc1nc(Nc2ccc(-n3cnc(Cl)c3)c(OC)c2)nc2c1COCC2c1ccc(F)cc1 (stereo not shown) [Example 60A, N2-(4-(4-chloro-1H-imidazol-1-yl)-3-methoxyphenyl)-8-(4-fluorophenyl)-N4-methyl-7,8-dihydro-5H-pyrano[4,3-d]pyrimidine-2,4-diamine] | 5.6 nM

Same assay, conditions: H4 APP751 SWE clone 8.20 cells, 19 h incubation; class symbols; read-out: Activity Rating (Aβ42 cellular IC50)

Row | SMILES | IC50
14 | COc1cc(Nc2nc3c(c(N4CCC4)n2)CCC3c2ccccc2)ccc1-n1cnc(Cl)c1 (single isomer, unassigned) [Example 6A, 4-(azetidin-1-yl)-N-(4-(4-chloro-1H-imidazol-1-yl)-3-methoxyphenyl)-7-phenyl-6,7-dihydro-5H-cyclopenta[d]pyrimidin-2-amine] | 1.5 to 9.9 nM
15 | COCC(Nc1nc(Nc2ccc(-n3cnc(Cl)c3)c(OC)c2)nc2c1CCC2c1ccc(F)cc1)C1CC1 (single isomer, unassigned) [Example 45A, N2-(4-(4-chloro-1H-imidazol-1-yl)-3-methoxyphenyl)-N4-(1-cyclopropyl-2-methoxyethyl)-7-(4-fluorophenyl)-6,7-dihydro-5H-cyclopenta[d]pyrimidine-2,4-diamine] | 10 to 100 nM
16 | COc1cc(Nc2nc3c(c(N(C)C)n2)CCC3c2ccc(F)cc2)ccc1-n1cnc(Cl)c1 (single isomer, unassigned) [Example 46B, N^2-(4-(4-chloro-1H-imidazol-1-yl)-3-methoxyphenyl)-7-(4-fluorophenyl)-N^4,N^4-dimethyl-6,7-dihydro-5H-cyclopenta[d]pyrimidine-2,4-diamine] | 10 to 100 nM
17 | COc1cc(Nc2nc3c(c(N4CCCC4C)n2)CCC3c2ccc(F)cc2)ccc1-n1cnc(Cl)c1 (single isomer, unassigned) [Example 19, N-(4-(4-chloro-1H-imidazol-1-yl)-3-methoxyphenyl)-7-(4-fluorophenyl)-4-(2-methylpyrrolidin-1-yl)-6,7-dihydro-5H-cyclopenta[d]pyrimidin-2-amine] | 10 to 100 nM
18 | COc1cc(Nc2nc3c(c(N4CCC4)n2)CCC3c2ccc(OC(F)(F)F)cc2)ccc1-n1cnc(Cl)c1 (single isomer, unassigned) [Example 101A, 4-(azetidin-1-yl)-N-(4-(4-chloro-1H-imidazol-1-yl)-3-methoxyphenyl)-7-(4-(trifluoromethoxy)phenyl)-6,7-dihydro-5H-cyclopenta[d]pyrimidin-2-amine] | 1.5 to 9.9 nM
19 | Cc1ncnn1-c1ccc(Nc2nc3c(c(N4CC(F)(F)C4)n2)CCC3c2ccc(F)cc2)cc1F (single isomer, unassigned) [Example 16A, 4-(3,3-difluoroazetidin-1-yl)-N-(3-fluoro-4-(5-methyl-1H-1,2,4-triazol-1-yl)phenyl)-7-(4-fluorophenyl)-6,7-dihydro-5H-cyclopenta[d]pyrimidin-2-amine] | 1.5 to 9.9 nM
20 | COc1cc(Nc2nc3c(c(N(C)C)n2)CCC3c2ccccc2)ccc1-n1cnc(Cl)c1 (single isomer, unassigned) [Example 4B, N^2-(4-(4-chloro-1H-imidazol-1-yl)-3-methoxyphenyl)-N^4,N^4-dimethyl-7-phenyl-6,7-dihydro-5H-cyclopenta[d]pyrimidine-2,4-diamine] | 10 to 100 nM
21 | CNc1nc(Nc2ccc(-n3cnc(C)n3)c(OC)c2)nc2c1COCC2c1ccc(F)cc1 (stereo not shown) [Example 54B, 8-(4-fluorophenyl)-N2-(3-methoxy-4-(3-methyl-1H-1,2,4-triazol-1-yl)phenyl)-N4-methyl-7,8-dihydro-5H-pyrano[4,3-d]pyrimidine-2,4-diamine] | 1.5 to 9.9 nM

Same assay, conditions: H4 APP751 SWE clone 8.20 cells, 19 h incubation; read-out: Activity Rating (Aβ42 cellular IC50), numeric value

Row | SMILES | IC50
22 | CCNc1nc(Nc2ccc(-n3cnc(Cl)c3)c(OC)c2)nc2c1CN(CC(F)F)CC2c1ccccc1 (stereo not shown) [Example 197A, N4-ethyl-N2-(3-methoxy-4-(4-chloro-1H-13-imidazol-1-yl)phenyl)-8-phenyl-6-(2,2-difluoroethyl)-5,6,7,8-tetrahydropyrido[4,3-d]pyrimidine-2,4-diamine] | 60 nM

From US8637525B2, “Compounds for the reduction of beta-amyloid production” (Bristol-Myers Squibb Company, priority 2009, dated 2014)
